Data set [1] deals with pentobarbital-anesthetized rabbit myocardial infarction. In words: pentobarbital-anesthetized rabbit myocardial infarction model. The data set is classed as in vivo. The source says:
The cardioprotective activity of the agents of the invention is confirmed in vivo e.g. in a model of pentobarbital-anesthetized rabbit myocardial infarction where the infarct size is reduced upon administration of about 1 to about 100 μmol/kg [For the model, see for example Ytrehus K. et al., Am. J. Physiol 267 (Heart Circ. Physiol. 36): H2383-2390, 1994 and Haessler R. et al., Cardiov. Res. 28: 1574-1580, 1994; for the cardioprotective effect of PARP inhibitors as evidenced in this model, see for example Thiemermann C. et al., Proc. Natl. Acad. Sci. USA 94: 679-683, 1997].

The molecule `Cl.Cl.O=c1[nH]c2c(CCNCCN3CCOCC3)c3ccccc3n2c2ccccc12` showed a melting point of 196 to 198 °C. Still for that read-out and setting: under `CCc1c2ccccc2n2c1[nH]c(=O)c1ccccc12` [Example 1, 7-Ethyl-6H-indolo[1,2-a]quinazoline-5-one] stands 245 to 260 °C. In the case of `O=c1[nH]c2c(Cc3nnn[nH]3)c3ccccc3n2c2ccccc12` [Example 22, 7-(1 H-Tetrazole-5-ylmethyl)-6H-indolo[1,2-a]quinazoline-5-one], the “reduction of infarct size” value in data set [1] (highest dose tested (70 μmol/kg i.v., 22.1 mg/kg of the base), single injection five minutes before reperfusion) was found to be 60%. Besides, the “effect on infarct size” value in data set [1] (single injection at 3-70 μmol/kg i.v. (0.95-22.1 mg/kg i.v. of the base) five minutes before reperfusion) is recorded as “dose-dependently reduces infarct size”.

`O=c1[nH]c2c(CCO)c3ccccc3n2c2ccccc12` [Example 61, 7-(2-Hydroxy-ethyl)-6H-indolo[1,2-a]quinazoline-5-one] returned a melting point of 248 to 252 °C.

As for `NCCc1c2ccccc2n2c1[nH]c(=O)c1ccccc12` [Example 64, 7-(2-Amino-ethyl)-6H-indolo[1,2-a]quinazoline-5-one], the melting point is greater than 300 °C.

In the case of `CCC(N)Cc1c2ccccc2n2c1[nH]c(=O)c1ccccc12` (stereo not shown) [Example 65, 7-(2-Amino-butyl)-6H-indolo[1,2-a]quinazoline-5-one], the melting point was 165 to 195 °C (dec.).

Values taken from patent publication US6964960B2, “Indoloquinazolinones” (Novartis AG, priority 2000, dated 2005).
